Data on four compounds can be found in patent US6946467B2, “Serine protease inhibitors” (Eli Lilly and Company, priority 2000, dated 2005).

Where a name gives a salt, the structure may show the parent alone.

As usually defined, the melting point is the temperature of the solid-liquid transition. Compound `Cl.N#Cc1cc(CCN2CCN(C(=O)[C@H](NC(=O)c3ccc4cc[nH]c4c3)c3ccccc3)CC2)ccn1` registered a melting point of 156 to 169 °C.
Turning to `O=C(N[C@@H](C(=O)N1CCN(CCc2ccncc2F)CC1)c1ccccc1)c1ccc2cc[nH]c2c1` [Example 58a, 1-[Indole-6-carbonyl-D-phenylglycinyl]-4-[2-(3-fluoropyridin-4-yl)ethyl]piperazine], the melting point is 135 to 145 °C (dec.).
Take `Cl.O=C(N[C@@H](C(=O)N1CCN(CCc2nccs2)CC1)c1ccccc1)c1ccc2cc[nH]c2c1`: the melting point is 135 to 142 °C (dec.).
For `COc1ccc(C(=O)N[C@@H](C(=O)N2CCN(CCC3CCCC3)CC2)c2ccccc2)cc1` (as salt: hydrochloride) [Example 30, 1-(4-Methoxybenzoyl-D-phenylglycinyl)-4-(2-cyclopentylethyl)piperazine], the melting point was in the range of 190 to 192 °C.
